PMC7024221, “The Application of Reversible Intramolecular Sulfonamide Ligation to Modulate Reactivity in Organometallic Ruthenium(II) Diamine Complexes” (Molecules, 2020)
Entries after “also recorded” stand apart in the source; their conditions may differ. Read-outs that look alike come from different tables or passages of the source. Marks after values point to notes of the source that are not given here.

Experiments:
[1] = design: method as in doi:10.1021/acs.organomet.7b00868; conditions: R = Ms, Tf; reported previously; cited from earlier work
[2] = cited from earlier work
[3] = pH titration by 1H/19F NMR of open and chelate forms (apparent pKa); format: physicochemical; conditions: 2.46 mM complex, D2O, 0.1 M NaCl; for Apparent pKa: Henderson-Hasselbalch fit of % open form versus pD
Protocol: The ability of the tethered sulfonamide functionality to reversibly ligate to the ruthenium atom in a pH-dependent manner, forming an intramolecular chelate, was examined by recording ^1H NMR spectra of 1–5 (and ^19F NMR spectra for 2–5) (2.46 mM complex, D2O, […], 0.1 M NaCl) as a function of pH. Within these spectra two unique sets of signals were observed, the relative proportion of these being pH-dependent, that were assigned to the open and chelate forms of the complexes (Figures S12–S15). Plotting the percentage of open form of the complex, calculated from the ratio of selected ligand signals corresponding to the open and chelate forms of the complexes, versus pD yielded sigmoidal curves in each case and apparent pKa values for 1–5 (Table 1) were determined by fitting of the Henderson-Hasselbalch equation to the data (Figure 7 and Figure 8).
pH titrations of 1–6 and [Ru(η^6-C6H5CH2CH2NHTr)(C2O4)(H2O)] were conducted by adjustment of the pD of solutions of the complexes (2.46 mM, 295 K, 0.1 M NaCl) in D2O through addition of 1–5 µL aliquots of NaOD (3.6 wt.%) and DCl (1.8 wt.%) solutions in D2O. Following pD adjustment the solutions were left to equilibrate (for 1–6 this was up to 36 h) then the ^1H and ^19F spectra of each were recorded. The ratio of selected ligand signals (for example –CH3 for 1, arene resonances for 2, –CF3 for 3–5) corresponding to the open- and chelate-forms of the complex were determined for each pD value and enabled a plot of % open-form versus pD. pKa values were calculated through fitting of the Henderson-Hasselbalch equation to the data.

[4] = Solution stability (NaCl, arene loss on standing of NMR solution); format: physicochemical; conditions: standing for extended periods of time (>24 h)
Protocol: A total of six half-sandwich ruthenium(II) arene complexes were synthesized for evaluation in this study (Figure 2). [Ru(η^6-C6H5CH2CH2NHR)(en)(Cl)]PF6 (R = Ms (1), tresyl (Tr) (2), Tf (3) or acetyl (6)) and [Ru(η^6-C6H5(CH2)3CH2NHTf)(en)(Cl)]PF6 (5) were prepared via reaction of the respective [RuCl2(η^6-C6H5(CH2)nCH2NHR)]2 (R = acetyl, Ms, Tf or Tr) complex with ethylenediamine followed by the addition of NH4PF6 then crystallization of the product by concentration of the methanol solution or via vapor diffusion with diethyl ether. [Ru(η^6:κ^1-C6H5(CH2)2CH2NTf)(en)]PF6 (4) was prepared via the reaction of [RuCl2(η^6-C6H5(CH2)2CH2NHTf)]2 with ethylenediamine then treatment with silver carbonate and triethylamine, followed by addition of NH4PF6 and precipitation of the product by concentration and cooling. All complexes are soluble in water (≥5 mM) and stable in the presence of NaCl (100 mM). All complexes were characterized by ^1H, ^13C and ^19F NMR spectroscopy, high resolution mass spectrometry and elemental analysis.
During these studies it was observed that for 1–3 arene-ruthenium cleavage began to occur on standing of the NMR solution for even relatively short periods of time (>1 h) (Figures S12–S14).

[5] = Conversion of chelate form to open form in citrate/phosphate buffer, 19F NMR; format: physicochemical; conditions: 310 K
Protocol: To gain further insight into the reactivity of 4 the conversion of the chelate form to open form of the complex was probed in three different citrate/phosphate buffer solutions at 310 K (Figure 9). Aqueous solutions of 4 at pD 7.61 (where the chelate form of the complex exists exclusively) were diluted into citrate/phosphate buffer to yield solutions at pD 4.12, 4.91 and 5.96 (2.46 mM complex, 0.1 M NaCl). The conversion of the chelate form to the open form was monitored by ^19F NMR spectroscopy over 16 h. Under the most acidic conditions (pD 4.12) equilibrium was reached within the 16 h experiment duration, with 93% of 4 converting to the open form.
The conversion of the chelate-form of 4 to the activated open-form was investigated by dilution of a stock solution of 4 (D2O, 0.1 M NaCl) into citrate/phosphate buffer solutions (D2O, 0.1 M NaCl) at pD 4.12, 4.91 and 5.96 to yield solutions at a final complex concentration of 2.46 mM. The samples were maintained at 310 K within the NMR spectrometer and ^19F NMR spectra were recorded every 15 min for 16 h. The ratio of the –CF3 signals corresponding to the open- and chelate-forms of the complex were determined to allow a plot of % open-form versus time. The fitting of the equation y = C + A(1−e^−kx) (C-offset from zero; A-amplitude of the curve) to each set of experimental data yielded the half-life for the fraction of the chelate-form of 4 which is converted to the open-form.

5′-GMP = test: NMR binding study with the model ligand 5′-GMP; conditions: 1 eq. 5′-GMP, 2.46 mM complex, phosphate buffer 0.2 M, 310 K, 0.1 M NaCl
Protocol: (§1) The coordination of a metallodrug, via the metal ion, to biomacromolecular targets is a major mechanism by which biological activity is exerted in many of these complexes. To evaluate the ability of intramolecular sulfonamide ligation to regulate the availability of a coordination site at the ruthenium ion in this family of complexes, and therefore control ligation of endogenous ligands to the complex, binding studies were performed between 4 (and the control compound 6) and the model ligands L-histidine and 5′-GMP. 4 and 6 were incubated with 1 eq. of 5′-GMP or L-histidine (2.46 mM complex, phosphate buffer (0.2 M), 310 K, 0.1 M NaCl) for 144 h at pD values of 7.5 and 6.5 in each case. Incubations were monitored by ^1H and ^19F NMR. […] The degree of L-histidine coordination was not able to be quantified using ^1H NMR due to hydrogen-deuterium exchange which occurs at the histidine C2 proton and low intensity and overlapping peaks, but was more pronounced at pD 7.5 than pD 6.5. […]
(§2) The reactivity of 4 and 6 towards 5′-GMP/L-histidine was assessed by mixing stock solutions of the complex and ligand in phosphate buffer (both in D2O, 0.1 M NaCl) to yield 1:1 solutions with each component present at a concentration of 2.46 mM (200 mM buffer concentration, 0.1 M NaCl). […] Samples were incubated at 310 K and monitored using ^1H and ^19F NMR. […]

[6] = NMR binding study with the model ligand L-histidine; conditions: 1 eq. L-histidine, 2.46 mM complex, phosphate buffer 0.2 M, 310 K, 0.1 M NaCl
Protocol: as §1, §2

HT-29 cell line = test: MTT cytotoxicity assay; format: cell-based, human; conditions: HT-29, concentrations up to 100 µM, 72 h
Protocol: Having established the ability of 4 to coordinate to biologically relevant ligands in a pH-dependent manner we evaluated the cytotoxicity of 4 (and 6 as a control unable to form an intramolecular chelate) against the HT-29 cell line using the MTT assay. In light of the potential non-covalent interaction of 4 with protein as described earlier these assays were performed for both 4 and 6 using media containing 10% and 1% fetal calf serum to assess the effect of serum concentration on cytotoxicity. […] It is clear that while 6 is readily able to coordinate to 5′-GMP and L-histidine, and presumably forms biomacromolecular adducts in cell culture experiments, the nature and/or level of adducts formed is not detrimental to HT-29 cell viability. The ability of 4 to form biomacromolecular adducts in cell culture conditions will be less than that of 6 due to substantial intramolecular sulfonamide ligation under these pH conditions. […]
HT-29 (human colon adenocarcinoma) cells were counted and the concentration adjusted to 3 × 10^4 cells/.mL 100 µL of the cell suspension was dispensed into the wells of a 96 well plate. […] The results were read on a plate reader (Biotek ELX800 Universal Microplate Reader) at 570 nm. The viability of the cells is expressed as % of cell survival of each dilution against the “cells only” control taken as 100% survival. […]

bovine serum albumin = bovine serum albumin (Bos taurus, UniProt P02769); test: Incubation with bovine serum albumin monitored by 1H and 19F NMR; conditions: 72 h, 2.46 mM complex, 0.5 mM BSA, 310 K, pD 7.4
bovine serum albumin, sequence (P02769 25-607): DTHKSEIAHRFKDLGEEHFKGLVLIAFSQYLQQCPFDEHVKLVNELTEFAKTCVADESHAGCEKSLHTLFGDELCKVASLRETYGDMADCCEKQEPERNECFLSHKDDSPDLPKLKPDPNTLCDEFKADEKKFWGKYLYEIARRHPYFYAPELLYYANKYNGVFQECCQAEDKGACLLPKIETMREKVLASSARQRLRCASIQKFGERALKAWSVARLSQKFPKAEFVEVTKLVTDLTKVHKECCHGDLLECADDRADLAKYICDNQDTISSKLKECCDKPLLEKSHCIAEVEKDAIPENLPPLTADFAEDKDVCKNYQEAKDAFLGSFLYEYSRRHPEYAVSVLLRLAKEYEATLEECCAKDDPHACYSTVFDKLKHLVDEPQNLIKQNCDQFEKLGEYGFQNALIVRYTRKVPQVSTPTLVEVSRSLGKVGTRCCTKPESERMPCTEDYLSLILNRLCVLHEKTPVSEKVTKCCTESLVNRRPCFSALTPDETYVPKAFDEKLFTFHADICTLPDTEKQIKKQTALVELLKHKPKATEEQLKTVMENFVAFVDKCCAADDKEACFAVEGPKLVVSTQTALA

Molecule: [Ru(η^6-C6H5CH2CH2NHTf)(C2O4)(H2O)]
- Apparent pKa for the Analogous [Ru(η^6-C6H5CH2CH2NHR)(C2O4)(H2O)] Complex [1]: 4.05 ^‡

Molecule: Nc1nc2c(ncn2[C@@H]2O[C@H](COP(=O)([O-])[O-])[C@@H](O)[C@H]2O)c(=O)[nH]1.[Na+].[Na+] [5′-GMP, guanosine 5′-monophosphate disodium salt]
- pKa of the N7 position [2]: 2.57

Molecule: [Ru(η^6-C6H5(CH2)3CH2NHTf)(en)(Cl)]PF6 [Complex 5]
- Apparent pKa [3]: 8.00
- Arene loss on standing of the NMR solution [4]: not observed

Molecule: N[C@@H](Cc1c[nH]cn1)C(=O)O [L-histidine]
- side chain pKa ([2]; imidazole): 6.07

Molecule: [Ru(η^6-C6H5CH2CH2NHMs)(C2O4)(H2O)]
- Apparent pKa for the Analogous [Ru(η^6-C6H5CH2CH2NHR)(C2O4)(H2O)] Complex [1]: 6.65 ^‡

Molecule: [Ru(η^6-C6H5CH2CH2NHTr)(C2O4)(H2O)]
- Apparent pKa for the Analogous [Ru(η^6-C6H5CH2CH2NHR)(C2O4)(H2O)] Complex ([3]; R = Tr, 295 K): 5.75

Molecule: [Ru(η^6:κ^1-C6H5(CH2)2CH2NTf)(en)]PF6 [Complex 4]
- Fraction converted to the open form at equilibrium ([5]; pD 4.12, equilibrium reached within 16 h, 2.46 mM complex, 0.1 M NaCl): 93%
- Open form present at equilibrium (from data fitting) ([5]; pD 4.91, equilibrium not reached within 16 h): 61%
- Open form present at equilibrium (from data fitting) ([5]; pD 5.96, equilibrium not reached within 16 h): 24%
- 5′-GMP coordinated to the complex (5′-GMP; pD 6.5, 144 h): 16 ± 1.6%
- 5′-GMP coordinated to the complex (5′-GMP; pD 7.5, 144 h): no coordination
- Coordination of L-histidine to the complex ([6]; pD 6.5, 144 h): lack of reactivity; also recorded: No coordination
- Coordination of L-histidine to the complex ([6]; pD 7.5, 144 h): lack of reactivity; also recorded: no coordination
- Inhibition of cell growth (MTT) (HT-29 cell line; media with 1% fetal calf serum): no significant inhibition of cell growth
- Inhibition of cell growth (MTT) (HT-29 cell line; media with 10% fetal calf serum): no significant inhibition of cell growth
- Non-covalent interaction with bovine serum albumin (1H NMR signals broader and slightly shifted) (bovine serum albumin): non-covalent interactions between 4 and the protein may be occurring
- Reactivity (covalent interaction) towards bovine serum albumin (bovine serum albumin; phosphate buffer 0.2 M, 0.1 M NaCl): lack of reactivity; also recorded: no covalent interaction
- Apparent pKa [3]: 4.82
- Arene loss on standing of the NMR solution [4]: not observed

Molecule: cis-[PtCl(Me2N(CH2)2PPh2-N,P)(Me2N(CH2)2PPh2-P)]Cl
- pKa (ring-open/ring-closed equilibrium, pH titrations) [2]: 6.9
